Data set [1] deals with FLT3. Details: method as in PMID 25068800, PMID 27649555. The note with it: cited from earlier work.
The conditions of data set [2]: mouse, in vivo.
The next data set deals with KIT (Homo sapiens, UniProt P10721). The data set can be described thus: HotSpot kinase assay. The note with it: read-out: % Enzyme Activity.
A further data set deals with MC38 murine colon tumor. The data set can be described thus: MC38 syngeneic tumor model. The class given is in vivo, mice. The note with it: MC38 tumor-bearing mice, 25-50 mg/kg orally, 3 weeks.
Data set [3] has as its system AXL phosphorylation in H1299 cells. The data set is described as follows: Western blotting of AXL phosphorylation. The conditions noted are these: 1 h treatment. Background: In western blotting, separated proteins are transferred to a membrane and probed.
A further data set addresses DDR1 (Homo sapiens, UniProt Q08345). The data set is described as follows: HotSpot kinase assay. The conditions noted are these: read-out: % Enzyme Activity.
The next data set has as its target TRKA (Homo sapiens, UniProt P04629). The data set is described as follows: HotSpot kinase assay. The note with it: read-out: % Enzyme Activity.
The target of a further data set is IRR (Homo sapiens, UniProt P14616). The data set is described as follows: HotSpot kinase assay. The conditions noted are these: read-out: % Enzyme Activity.
Data set [4] deals with FLT3 (Homo sapiens, UniProt P36888). The data set is described as follows: HotSpot kinase assay. The note with it: read-out: % Enzyme Activity.
The nature of data set [5]: In vivo pharmacokinetics study. The conditions noted are these: mice. As for the experimental part: The animal studies were performed according to NHRI institutional animal care and committee-approved procedures. Male ICR mice (25–35 g) were obtained from BioLASCO (Taiwan Co., Ltd., Ilan, Taiwan). […] All samples were analyzed for the parent drug by LC-MS/MS. Plasma concentration data were analyzed with a noncompartmental method.

Data set [6] is described as follows: In vitro microsomal stability assay. The class given is in vitro ADME. The conditions noted are these: 1 μM, mouse liver microsomes, percent remaining at 30 min. As for the experimental part: All incubations were initiated with the addition of NADPH-generating system at 37 °C for 30 min. At 0 and the end of incubation, 100 μL of aliquots were taken from the incubation mixture and placed into centrifuge tubes containing 100 μL of ice-cold acetonitrile to terminate the metabolic reaction. The samples were vortexed and centrifuged, and then, the supernatant injected onto LC/MS. Percent of remaining of each compound was calculated by comparing peak areas at 30 min to that at the initiation of incubation.
A general note: Liver microsomes are a subcellular fraction often used to study metabolism.

In data set [7] the test system is immune cells in tumor and spleen of MC38 tumor-bearing mice. The data set is described as follows: Immunophenotyping by flow cytometry. The class given is in vivo. The conditions noted are these: 50 mg/kg QD, FOTO, 2 weeks. As for the experimental part:
Tumor and spleen tissues from the control and treated animals were harvested 2 h after the last dose (day 11). […] tissues were carefully removed from the tumors followed by digestion with 0.1% collagenase III in DMEM medium for 30 min at 37 °C with agitation every 10 min. The digestion was terminated by adding 10% FBS containing PBS. The single-cell suspension was filtered through a 40 μm filter after red blood cell lysis. Aliquots of the cell suspension were preincubated with the mouse Fc receptor blocker for 10 min before staining with appropriate antimouse antibody conjugate for Cd45, Cd3, Cd4, Cd8, Cd11b, Cd86, F4/80, AXL, and MER (all antibody conjugates from BioLegend) at 4 °C for 30 min followed by two washes in 1% BSA containing buffer and analyzed by flow cytometry to quantify the accumulation of infiltrating immune cells into the tumor. For analysis of Cd206, the cells were fixed using the Cyto X/Cytoperm kit (BD Biosciences) after surface marker staining and then stained with antimouse Cd206 antibody.
Background: A flow cytometer gives signals particle by particle.

In data set [8] the test system is MER phosphorylation in G361 cells. The data set can be described thus: Western blotting of MER phosphorylation. The note with it: 48 h treatment.
For the next data set, the target named is TRKB (Homo sapiens, UniProt Q16620). The data set can be described thus: HotSpot kinase assay. The conditions noted are these: read-out: % Enzyme Activity.
The next data set addresses ROS1 (Homo sapiens, UniProt P08922). The data set can be described thus: HotSpot kinase assay. The conditions noted are these: read-out: % Enzyme Activity.
The target of a further data set is DDR2 (Homo sapiens, UniProt Q16832). The data set can be described thus: HotSpot kinase assay. The note with it: read-out: % Enzyme Activity.
A further data set relates to Ba/F3-MER cells. The data set can be described thus: Cell viability assay (MTS). The class given is cell-based. The note with it: 72 h.
Another data set concerns the target TRKC (Homo sapiens, UniProt Q16288). The data set can be described thus: HotSpot kinase assay. The note with it: read-out: % Enzyme Activity.
A short description of data set [9]: 14-day repeated dose toxicity study. The note with it: ICR mice.
The target in the next data set is T1, MER (Homo sapiens, UniProt Q12866).
T1 construct: A purified kinase (MER or AXL) was incubated with a compound or DMSO
T1 sequence (Q12866 21-999): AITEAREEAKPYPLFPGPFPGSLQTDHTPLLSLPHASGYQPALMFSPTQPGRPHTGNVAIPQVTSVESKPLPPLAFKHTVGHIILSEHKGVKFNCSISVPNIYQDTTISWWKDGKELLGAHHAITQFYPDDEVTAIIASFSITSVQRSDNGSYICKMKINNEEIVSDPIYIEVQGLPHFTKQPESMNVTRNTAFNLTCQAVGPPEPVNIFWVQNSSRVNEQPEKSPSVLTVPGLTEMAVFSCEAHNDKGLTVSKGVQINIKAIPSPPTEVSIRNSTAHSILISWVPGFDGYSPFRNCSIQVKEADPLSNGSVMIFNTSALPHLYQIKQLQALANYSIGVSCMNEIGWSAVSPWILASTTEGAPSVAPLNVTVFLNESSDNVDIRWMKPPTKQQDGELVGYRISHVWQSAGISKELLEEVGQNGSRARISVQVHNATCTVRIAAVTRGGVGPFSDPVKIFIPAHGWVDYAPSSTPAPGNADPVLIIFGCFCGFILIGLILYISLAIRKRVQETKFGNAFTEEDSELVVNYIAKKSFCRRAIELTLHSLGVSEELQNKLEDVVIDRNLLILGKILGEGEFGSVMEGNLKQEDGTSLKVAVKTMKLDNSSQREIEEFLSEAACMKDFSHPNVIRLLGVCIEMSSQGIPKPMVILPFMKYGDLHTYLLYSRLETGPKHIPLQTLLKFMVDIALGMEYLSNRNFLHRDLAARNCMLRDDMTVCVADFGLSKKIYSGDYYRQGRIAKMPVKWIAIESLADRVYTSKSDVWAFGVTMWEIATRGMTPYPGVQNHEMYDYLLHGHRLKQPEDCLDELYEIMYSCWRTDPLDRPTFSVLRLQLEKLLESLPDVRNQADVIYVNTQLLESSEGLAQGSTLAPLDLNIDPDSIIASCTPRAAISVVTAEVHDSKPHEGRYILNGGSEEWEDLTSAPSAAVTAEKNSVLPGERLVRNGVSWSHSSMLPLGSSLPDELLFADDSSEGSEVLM
The note with it: cited from earlier work.

Where [10] appears, read: male, ICR, mouse, plasma, iv 2 mg/kg, po 10 mg/kg.

Values joined by “and” are separate entries in the source; they are usually repeats but may differ in a detail not shown here. Equal entries are not always repeated. “Also recorded” adds a separate entry of the source.

A word on the IC50: it is the concentration that gives 50% inhibition. For the molecule `CCCCNc1ncc2c(-c3ccc(CN4CCN(C)CC4)cc3)cn([C@H]3CC[C@H](O)CC3)c2n1` [Compound 1, UNC2025, reference compound], the concentration for half-maximal inhibition (IC50) in the data set with FLT3 [1] is […].

Chain of KIT (P10721 26-976): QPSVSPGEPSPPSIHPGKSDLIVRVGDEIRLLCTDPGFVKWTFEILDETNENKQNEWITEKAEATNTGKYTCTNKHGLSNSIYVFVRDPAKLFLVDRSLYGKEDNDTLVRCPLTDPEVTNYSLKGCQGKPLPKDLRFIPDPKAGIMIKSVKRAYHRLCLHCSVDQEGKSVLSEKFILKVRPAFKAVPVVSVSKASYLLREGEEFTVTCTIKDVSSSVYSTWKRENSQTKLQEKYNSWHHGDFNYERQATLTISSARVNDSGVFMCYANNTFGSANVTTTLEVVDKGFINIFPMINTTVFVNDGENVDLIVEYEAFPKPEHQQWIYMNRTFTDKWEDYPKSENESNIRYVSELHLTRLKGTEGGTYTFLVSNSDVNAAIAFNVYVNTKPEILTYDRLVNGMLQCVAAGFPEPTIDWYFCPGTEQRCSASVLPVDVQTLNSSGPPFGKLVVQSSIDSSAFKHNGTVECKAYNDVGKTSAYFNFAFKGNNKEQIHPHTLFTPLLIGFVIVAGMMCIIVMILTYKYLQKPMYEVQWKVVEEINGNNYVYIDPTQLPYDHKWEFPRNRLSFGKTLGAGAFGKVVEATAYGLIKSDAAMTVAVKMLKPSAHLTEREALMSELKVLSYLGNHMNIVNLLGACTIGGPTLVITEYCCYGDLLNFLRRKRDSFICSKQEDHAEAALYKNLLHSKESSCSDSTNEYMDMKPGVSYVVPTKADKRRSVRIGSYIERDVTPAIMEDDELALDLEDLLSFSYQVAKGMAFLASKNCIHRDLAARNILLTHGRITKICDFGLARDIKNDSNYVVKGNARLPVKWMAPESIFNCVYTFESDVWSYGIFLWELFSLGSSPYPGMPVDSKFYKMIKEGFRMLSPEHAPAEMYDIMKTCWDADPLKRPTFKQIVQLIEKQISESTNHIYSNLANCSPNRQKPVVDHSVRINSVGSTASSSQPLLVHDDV
Chain of TRKA (P04629 33-796): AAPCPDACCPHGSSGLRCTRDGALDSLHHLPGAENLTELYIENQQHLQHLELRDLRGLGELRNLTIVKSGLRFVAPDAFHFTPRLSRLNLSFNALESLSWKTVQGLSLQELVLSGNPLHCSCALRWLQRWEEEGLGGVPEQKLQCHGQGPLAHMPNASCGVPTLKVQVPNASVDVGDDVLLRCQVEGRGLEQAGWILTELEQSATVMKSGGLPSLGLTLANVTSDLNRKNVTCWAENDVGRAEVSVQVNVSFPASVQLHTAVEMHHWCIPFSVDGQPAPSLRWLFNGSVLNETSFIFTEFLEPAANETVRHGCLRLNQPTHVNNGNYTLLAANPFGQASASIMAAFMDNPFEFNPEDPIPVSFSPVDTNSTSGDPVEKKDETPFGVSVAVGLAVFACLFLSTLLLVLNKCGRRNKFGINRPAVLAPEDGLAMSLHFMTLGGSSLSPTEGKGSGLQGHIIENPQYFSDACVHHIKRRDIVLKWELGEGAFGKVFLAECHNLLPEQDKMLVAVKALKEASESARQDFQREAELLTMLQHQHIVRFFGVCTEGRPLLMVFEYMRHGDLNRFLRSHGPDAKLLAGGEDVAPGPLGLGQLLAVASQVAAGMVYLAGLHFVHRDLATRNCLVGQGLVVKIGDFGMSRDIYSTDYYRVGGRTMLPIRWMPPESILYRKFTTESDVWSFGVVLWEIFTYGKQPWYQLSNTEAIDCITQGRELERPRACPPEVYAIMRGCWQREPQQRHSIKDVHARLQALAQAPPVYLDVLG
Chain of DDR1 (Q08345 19-913): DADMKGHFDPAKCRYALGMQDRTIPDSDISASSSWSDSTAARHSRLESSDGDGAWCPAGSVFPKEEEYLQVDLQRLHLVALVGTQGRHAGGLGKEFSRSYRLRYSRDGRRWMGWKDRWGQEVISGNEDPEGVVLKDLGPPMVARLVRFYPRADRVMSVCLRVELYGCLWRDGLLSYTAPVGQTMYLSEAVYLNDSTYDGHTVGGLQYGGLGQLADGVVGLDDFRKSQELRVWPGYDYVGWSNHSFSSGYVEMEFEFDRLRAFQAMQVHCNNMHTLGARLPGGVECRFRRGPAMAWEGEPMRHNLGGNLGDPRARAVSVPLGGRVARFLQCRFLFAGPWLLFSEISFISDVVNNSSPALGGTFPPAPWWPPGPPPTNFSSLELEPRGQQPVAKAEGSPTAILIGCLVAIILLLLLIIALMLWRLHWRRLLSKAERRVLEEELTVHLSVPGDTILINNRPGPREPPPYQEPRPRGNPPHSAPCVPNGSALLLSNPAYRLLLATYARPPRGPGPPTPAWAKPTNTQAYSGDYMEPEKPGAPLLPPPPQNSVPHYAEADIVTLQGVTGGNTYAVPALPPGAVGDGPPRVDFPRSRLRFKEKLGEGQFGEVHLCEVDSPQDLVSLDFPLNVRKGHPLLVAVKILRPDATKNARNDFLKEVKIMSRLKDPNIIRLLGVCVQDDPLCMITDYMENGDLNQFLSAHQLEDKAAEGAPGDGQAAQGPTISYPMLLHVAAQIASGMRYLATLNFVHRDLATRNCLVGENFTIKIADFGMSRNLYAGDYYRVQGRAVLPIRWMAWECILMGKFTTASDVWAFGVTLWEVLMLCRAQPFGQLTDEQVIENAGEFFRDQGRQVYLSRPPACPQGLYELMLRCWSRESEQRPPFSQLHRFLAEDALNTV
Chain of ROS1 (P08922 28-2347): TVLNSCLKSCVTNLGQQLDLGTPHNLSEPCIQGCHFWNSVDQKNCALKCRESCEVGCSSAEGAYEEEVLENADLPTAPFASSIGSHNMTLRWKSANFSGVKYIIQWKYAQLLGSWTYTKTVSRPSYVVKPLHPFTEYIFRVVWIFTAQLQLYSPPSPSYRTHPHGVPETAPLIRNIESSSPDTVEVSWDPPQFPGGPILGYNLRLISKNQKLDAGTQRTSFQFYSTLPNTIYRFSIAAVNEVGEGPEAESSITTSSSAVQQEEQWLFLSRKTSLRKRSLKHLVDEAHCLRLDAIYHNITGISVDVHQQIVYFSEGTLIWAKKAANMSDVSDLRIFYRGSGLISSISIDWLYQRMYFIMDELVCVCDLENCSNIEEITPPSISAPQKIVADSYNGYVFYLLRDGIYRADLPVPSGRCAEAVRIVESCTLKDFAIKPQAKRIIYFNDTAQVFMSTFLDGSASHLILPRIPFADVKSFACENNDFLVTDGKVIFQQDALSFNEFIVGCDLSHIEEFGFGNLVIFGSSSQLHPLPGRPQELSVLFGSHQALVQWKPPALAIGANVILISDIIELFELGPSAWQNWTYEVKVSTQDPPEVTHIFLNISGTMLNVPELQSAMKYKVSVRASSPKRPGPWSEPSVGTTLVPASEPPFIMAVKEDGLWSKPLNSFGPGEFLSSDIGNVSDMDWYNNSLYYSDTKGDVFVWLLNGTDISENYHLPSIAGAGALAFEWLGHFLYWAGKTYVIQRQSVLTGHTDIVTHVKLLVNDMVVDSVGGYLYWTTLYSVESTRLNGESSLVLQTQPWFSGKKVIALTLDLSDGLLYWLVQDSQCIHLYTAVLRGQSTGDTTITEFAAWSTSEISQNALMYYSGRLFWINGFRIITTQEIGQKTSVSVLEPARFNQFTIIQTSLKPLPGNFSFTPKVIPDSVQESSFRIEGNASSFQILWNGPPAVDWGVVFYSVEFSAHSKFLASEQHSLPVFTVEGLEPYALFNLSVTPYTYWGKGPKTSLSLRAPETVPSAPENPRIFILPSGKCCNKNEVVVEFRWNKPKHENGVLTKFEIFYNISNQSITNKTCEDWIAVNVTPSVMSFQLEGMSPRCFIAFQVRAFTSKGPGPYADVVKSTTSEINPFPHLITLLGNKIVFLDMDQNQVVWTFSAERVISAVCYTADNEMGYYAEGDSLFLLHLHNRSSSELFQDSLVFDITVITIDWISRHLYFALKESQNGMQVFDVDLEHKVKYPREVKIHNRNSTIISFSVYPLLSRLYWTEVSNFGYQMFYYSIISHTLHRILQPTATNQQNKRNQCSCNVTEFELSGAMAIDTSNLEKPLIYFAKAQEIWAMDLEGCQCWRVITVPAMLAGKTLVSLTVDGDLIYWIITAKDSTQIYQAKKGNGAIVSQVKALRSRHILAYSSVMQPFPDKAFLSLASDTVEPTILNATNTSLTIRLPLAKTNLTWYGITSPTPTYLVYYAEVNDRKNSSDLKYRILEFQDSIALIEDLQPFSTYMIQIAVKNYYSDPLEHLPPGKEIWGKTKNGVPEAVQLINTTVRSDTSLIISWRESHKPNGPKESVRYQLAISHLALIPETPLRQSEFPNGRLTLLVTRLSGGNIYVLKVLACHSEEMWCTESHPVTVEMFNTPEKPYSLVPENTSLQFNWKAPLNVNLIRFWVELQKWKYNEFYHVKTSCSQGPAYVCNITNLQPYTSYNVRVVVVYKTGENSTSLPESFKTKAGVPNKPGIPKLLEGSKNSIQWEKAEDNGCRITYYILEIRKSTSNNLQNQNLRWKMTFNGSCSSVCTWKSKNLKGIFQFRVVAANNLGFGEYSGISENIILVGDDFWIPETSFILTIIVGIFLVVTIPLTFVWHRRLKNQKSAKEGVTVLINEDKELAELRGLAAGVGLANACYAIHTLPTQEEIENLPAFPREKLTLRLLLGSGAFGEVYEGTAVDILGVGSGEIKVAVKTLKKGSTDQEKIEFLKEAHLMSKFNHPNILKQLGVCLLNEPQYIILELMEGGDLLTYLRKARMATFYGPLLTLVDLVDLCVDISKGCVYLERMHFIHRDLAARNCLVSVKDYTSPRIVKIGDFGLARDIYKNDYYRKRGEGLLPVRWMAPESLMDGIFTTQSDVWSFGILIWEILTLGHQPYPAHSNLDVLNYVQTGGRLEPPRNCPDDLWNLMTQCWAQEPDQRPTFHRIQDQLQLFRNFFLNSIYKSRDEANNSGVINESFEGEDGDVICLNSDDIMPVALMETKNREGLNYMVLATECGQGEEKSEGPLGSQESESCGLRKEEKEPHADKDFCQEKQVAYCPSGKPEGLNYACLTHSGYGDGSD

In general, bioavailability refers to the share of a dose that reaches the circulation, judged against a reference dose that is usually intravenous. A high value points to much systemic uptake. Broadly, the Tmax is the time at which the peak concentration occurs. In the case of `CN(C)Cc1cccc(-c2c(-c3cnn(C)c3)oc3ncnc(Oc4ccc(NC(=O)c5cccn(-c6ccc(F)cc6)c5=O)cc4)c23)c1` [Compound 33, N-{4-[(5-{3-[(Dimethylamino)methyl]phenyl}-6-(1-methyl-1H-pyrazol-4-yl)furo[2,3-d]pyrimidin-4-yl)oxy]phenyl}-1-(4-fluorophenyl)-2-oxo-1,2-dihydropyridine-3-carboxamide], in data set [2], the “toxicity, 14-day repeated dose” value is “no significant toxicity at any dose level”. Moreover, the remaining activity at 1 µM at KIT amounted to 1.05%. In addition, the “body weight during treatment” value with MC38 murine colon tumor is listed as “well-tolerated without significant body weight loss”. In [3], the “Gas6-mediated AXL phosphorylation” value is given as “effectively blocked”. The remaining activity at 1 µM on DDR1 was 9.39%. The remaining activity at 1 µM at TRKA stood at 3.35%. Further, the remaining activity at 1 µM on IRR came to 1.79%. The remaining activity at 1 µM on FLT3 [4] is -0.03%. In [5] (setting [10]), this molecule had a bioavailability greater than 20% and a bioavailability at 24 h of 54.6%. Besides, the clearance in [5] (male, ICR, mouse, plasma, iv 2 mg/kg, read-out: iv CL) came to 12.6 mL/min/kg. Besides, in data set [5] (male, ICR, mouse, plasma, iv 2 mg/kg, read-out: iv T1/2 (converted)), the half-life was 4.5 h. The Vd in data set [5] (male, ICR, mouse, plasma, iv 2 mg/kg, read-out: iv Vss) was found to be 5.2 L/kg. Moreover, in data set [5] (male, ICR, mouse, plasma, po 10 mg/kg), the Tmax at 24 h turned out to be 5.3 h. Moreover, the half-life at 24 h in [5] (male, ICR, mouse, plasma, po 10 mg/kg, read-out: po T1/2 (converted)) is 5.2 h. In addition, in data set [5] (iv 2 mg/kg, dose-normalized), the “iv DNAUC(0–inf)” value is 1,573.0 ng × hr/mL. Also, in data set [5] (po 10 mg/kg, dose-normalized), the “po DNAUC(0–inf)” value is 858.8 ng·h/mL and the “po DNCmax” value is 95.0 ng/mL. Besides, the “Microsomal stability @ 30 min” value in data set [6] turned out to be 79%. For the same molecule, in data set [7], the “increase in intratumoral M1-like macrophages” value stood at 2 fold, the “increase in percentage of Cd3^+ pan-T cells in spleen” value is on record as 2 fold, the “increase in percentage of Cd4^+ helper T cells in spleen” value was 2 fold and the “increase in percentage of Cd8^+ cytotoxic T cells in spleen” value was 6 fold. Further, the “MER phosphorylation induced by MAB8912” value in [8] is “effectively blocked MER phosphorylation”. Besides, the remaining activity at 1 µM on TRKB was 6.07%. For the same molecule, at ROS1, the remaining activity at 1 µM was 2.88%. Also, the remaining activity at 1 µM on DDR2 amounted to 4.45%. In addition, the IC50 in the data set on Ba/F3-MER cells was 5 nM and 4.8 nM. Further, the remaining activity at 1 µM at TRKC worked out at 2.26%. Further, in [9], the CBC result was “No significant”; the body weight entry is “No effect on body”; the “kidney serum biomarker CRE” value is “Mild effect on CRE; also recorded: mild decline in kidney serum biomarker CRE at 30 and 100 mpk”; the organ weight result is “No significant”.

On to `CCC[C@@H](C)Nc1ncc2c(C3CCN(C(=O)c4cc(C)nc(C)c4)CC3)cn([C@H]3CC[C@H](O)CC3)c2n1` [Compound 2, UNC5293], for which the IC50 at MER is 0.9 nM.

The record behind these values is article PMC11247487, “Discovery of Dual MER/AXL Kinase Inhibitors as Bifunctional Small Molecules for Inhibiting Tumor Growth and Enhancing Tumor Immune Microenvironment” (Journal of Medicinal Chemistry, 2024).
